How the values were obtained:
[1] = system: BRN2 (POU3F2), luciferase reporter assay; experiment: cells; conditions: for inhibition at 10 µM: read-out: % of Inhibition (Luciferase assay) / 10µM; for inhibition at 30 µM: read-out: % of Inhibition (Luciferase assay) / 30µM; for % of Inhibition (Luciferase assay) / 10µM / % of Inhibition (Luciferase assay) / 30µM: inhibitor
[2] = biological target: T1, BRN2 (POU3F2), purified BRN2^WT (Homo sapiens, UniProt P20265); experiment: microscale thermophoresis; format: binding
T1 sequence (P20265 264-415): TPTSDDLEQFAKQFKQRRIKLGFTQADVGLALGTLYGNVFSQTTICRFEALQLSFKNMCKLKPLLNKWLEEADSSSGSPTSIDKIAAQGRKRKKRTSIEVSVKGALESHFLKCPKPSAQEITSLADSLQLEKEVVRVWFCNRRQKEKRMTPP

Kd [2]	Structure (SMILES)	inhibition at 10 µM [1]	inhibition at 30 µM [1]	% of Inhibition (Luciferase assay) / 10µM [1]	% of Inhibition (Luciferase assay) / 30µM [1]
–	Cc1ccc(-c2nc3cc(N)ccc3n2C)o1 [B-63]	22%	44%	–	–
–	Oc1ccc(Br)cc1/C=N/Nc1nc2ccccc2[nH]1 [B-52]	27.1%	21.3%	–	–
–	Oc1cccc(/C=N/Nc2nc3ccccc3[nH]2)c1O [B-59]	–	-145%	–	–
–	Cc1cc(C(=O)Nc2cccc(Cl)c2)c2cc(F)ccc2n1 [B-14]	41.6%	32%	–	–
–	COc1ccc(/C=N\Nc2nc3ccccc3[nH]2)cc1O [B-65]	31%	51%	–	–
–	c1cc(-c2noc(C3CCCCC3)n2)ccn1 [B-28]	-139%	-180%	–	–
–	O=C(CSc1nc2ccccc2[nH]1)c1ccccc1 [B-15]	-5%	9.16%	–	–
–	Oc1ccc2ccccc2c1/C=N/Nc1nc2ccccc2[nH]1 [B-51]	-12.8%	76.8%	–	–
–	O=C(Nc1cc(Cl)cc(Cl)c1)c1ccccc1 [B-13]	–	–	-8.507%	43.29%
–	Clc1cc(Br)ccc1-c1ccc(-c2nc3ccccc3[nH]2)o1 [B-70]	88.1%	91.7%	–	–
–	c1ccc2c(c1)C(=NNc1nc3ccccc3[nH]1)c1ccccc1-2 [B-40]	93.2%	98.8%	–	–
–	O=C1c2ccccc2C(=O)N1c1nc(-c2ccccc2)cs1 [B-22]	-129%	-138%	–	–
–	Oc1ccc(/C=N/Nc2nc3ccccc3[nH]2)c(O)c1 [B-49]	46.1%	70.8%	–	–
–	Cn1c(-c2ccco2)nc2cc(N)ccc21 [B-64]	19%	39%	–	–
–	O=C(Nc1ccc(F)cc1)c1ccccc1 [B-9]	-61.5%	-58.1%	–	–
–	Cc1ccccc1/C=N/Nc1nc2ccccc2[nH]1 [B-47]	-2.99%	36.5%	–	–
–	O=C(Nc1cc(Cl)cc(Cl)c1)c1ccccc1 [B-10]	–	–	-70.87%	68.05%
–	C/C(=N/Nc1nc2ccccc2[nH]1)c1ccc(F)cc1 [B-48]	-46.2%	-6.79%	–	–
–	Oc1c(Cl)cc(Cl)cc1/C=N/Nc1nc2ccccc2[nH]1 [B-31]	22.6%	12.7%	–	–
–	O=C(Oc1cccc(F)c1)c1cccc2ccccc12 [B-6]	-6.6%	-58%	–	–
–	c1ccc([C@H]2COC(c3cccs3)=N2)cc1 [B-23]	-121%	-147%	–	–
–	CC/C(=N/Nc1nc2ccccc2[nH]1)c1cccc(Cl)c1 [B-37]	19.1%	80.2%	–	–
–	Cn1c(-c2ccc(CO)o2)nc2ccccc21 [B-56]	-114%	-134%	–	–
–	CC/C(=N\Nc1nc2ccccc2[nH]1)c1ccc(F)cc1 [B-34]	33.1%	80%	–	–

Kd [2]	Structure (SMILES)	inhibition at 10 µM [1]	inhibition at 30 µM [1]	% of Inhibition (Luciferase assay) / 10µM [1]	% of Inhibition (Luciferase assay) / 30µM [1]
–	Oc1ccc(Cl)cc1/C=N/Nc1nc2ccccc2[nH]1 [B-30]	-6.38%	28.1%	–	–
–	Clc1ccc(-c2ccc(-c3nc4ccccc4[nH]3)o2)cc1Cl [B-67]	-99.2%	74%	–	–
–	C/C(=N/Nc1nc2ccccc2[nH]1)c1ccccc1O [B-42]	-3.59%	66.8%	–	–
–	Clc1ccccc1-c1ccc(-c2nc3ccccc3[nH]2)o1 [B-68]	54.9%	94.4%	–	–
–	COc1ccc(CNc2ccccc2)c2ccccc12 [B-17]	3.97%	12.2%	–	–
–	C/C(=N\Nc1nc2ccccc2[nH]1)c1ccc2ccccc2c1O [B-45]	77.2%	91.8%	–	–
–	CC/C(=N\Nc1nc2ccccc2[nH]1)c1ccc(O)cc1 [B-35]	0.336%	50.1%	–	–
–	Brc1ccc(-c2ccc(-c3nc4ccccc4[nH]3)o2)c(Br)c1 [B-69]	90%	94%	–	–
–	c1ccc(NCc2csc3ccccc23)cc1 [B-11]	-24.8%	-22.7%	–	–
–	C/C(=N\Nc1nc2ccccc2[nH]1)c1ccc(O)cc1 [B-46]	6.41%	46.7%	–	–
–	COc1ccccc1/C=N\Nc1nc2ccccc2[nH]1 [B-61]	-172%	-70.4%	–	–
–	Cc1cccc(C(=O)Oc2cccc3ccccc23)c1 [B-12]	5.02%	-8.87%	–	–
–	Cc1cc(C(=O)Nc2ccccc2)c2ccccc2n1 [B-1]	14.6%	1.27%	–	–
–	Cc1ccc(-c2noc(-c3ccncc3)n2)cc1 [B-26]	-147%	-38.9%	–	–
–	Cn1c(N/N=C2/CCc3c(O)cccc32)nc2ccccc21 [B-36]	-39.4%	28.6%	–	–
–	Oc1ccc(/C=N/Nc2nc3ccccc3[nH]2)cc1 [B-50]	66.3%	72.1%	–	–
–	Fc1ccc(Cl)cc1/C=N/Nc1nc2ccccc2s1 [B-4]	19.5%	71.4%	–	–
–	Cc1ccc(NCc2c[nH]c3ccccc23)cc1 [B-19]	-4.93%	62%	–	–
–	c1ccc(-c2csc(-c3ccccn3)n2)cc1 [B-24]	-145%	-67.1%	–	–
–	Oc1ccccc1/C=N\Nc1nc2ccccc2[nH]1 [B-3]	69.2%	75.5%	–	–
–	COc1ccc(O)c(/C=N/Nc2nc3ccccc3[nH]2)c1 [B-29]	-44.2%	22.8%	–	–
–	Clc1ccc(Cl)c(-c2ccc(-c3nc4ccccc4[nH]3)o2)c1 [B-71]	46.2%	–	–	–
–	Cn1c(-c2ccc(-c3ccccc3)o2)nc2ccccc21 [B18]	97.6%	99.4%	–	–
–	C/C(=N/Nc1nc2ccccc2[nH]1)c1ccc(C)cc1 [B-38]	25.9%	74.3%	–	–

Kd [2]	Structure (SMILES)	inhibition at 10 µM [1]	inhibition at 30 µM [1]	% of Inhibition (Luciferase assay) / 10µM [1]	% of Inhibition (Luciferase assay) / 30µM [1]
–	C[C@@H]1Cc2ccccc2N1C(=O)c1cccc2ccccc12 [B-20]	15.7%	35.5%	–	–
–	c1ccc(-c2nc(-c3cccnc3)no2)cc1 [B-27]	–	-166%	–	–
–	Cc1ccccc1/C=N\Nc1nc2ccccc2[nH]1 [B-60]	-23.8%	25.5%	–	–
–	Oc1cccc(/C=N/Nc2nc3ccccc3[nH]2)c1 [B-54]	-45.1%	-34.4%	–	–
–	Oc1ccc(/C=N\Nc2nc3ccccc3[nH]2)cc1Cl [B-62]	88.2%	91.6%	–	–
–	C/C(=N\Nc1nc2ccccc2[nH]1)c1ccccc1 [B-58]	–	-58%	–	–
–	Cc1ccc(-c2nc3ccccc3n2C)o1 [B-55]	-120%	-88.1%	–	–
–	O=C(CSc1nc2ccccc2[nH]1)c1ccc(Cl)cc1 [B-16]	20.8%	44.7%	–	–
–	Cn1c(-c2ccco2)nc2ccccc21 [B-57]	-138%	-172%	–	–
–	C/C(=N/Nc1nc2ccccc2[nH]1)c1ccccc1Cl [B-41]	18.8%	74.1%	–	–
–	Cc1cc(C)c2c(c1)/C(=N/Nc1nc3ccccc3[nH]1)CCC2 [B-33]	21.6%	84.3%	–	–
–	Oc1ccccc1/C=N/Nc1nc2ccccc2[nH]1 [B-21]	-1.45%	24.8%	–	–
–	c1ccc2c(c1)CC/C2=N/Nc1ccc2ccccc2n1 [B-39]	99.1%	99.9%	–	–
–	Clc1cccc(-c2ccc(-c3nc4cc(Cl)ccc4[nH]3)o2)c1 [B-72]	-50.2%	87.1%	–	–
–	c1ccc(-c2ccc(N3CCOCC3)s2)cc1 [B-25]	-2.68%	51.5%	–	–
–	c1ccc(-c2ccc(-c3nc4ccccc4[nH]3)o2)cc1 [B-66]	11%	48%	–	–
–	Oc1ccc(/C=N/Nc2nc3ccccc3[nH]2)c(O)c1O [B-43]	12.5%	-1.16%	–	–
–	c1ccc2c(c1)CCC/C2=N\Nc1nc2ccccc2[nH]1 [B-32]	32.4%	77.2%	–	–
–	COc1ccc(CNc2ccc(C)cc2)c2ccccc12 [B-2]	19.6%	24.4%	–	–
–	Oc1c(Br)cc(Br)cc1/C=N/Nc1nc2ccccc2[nH]1 [B-53]	-127%	-80.2%	–	–
–	Cc1cc(C(=O)Nc2cc(F)ccc2C)c2ccccc2n1 [B-5]	4.75%	9.07%	–	–
2040 nM	Clc1ccc2cc(-c3csc(-c4ccc[nH]4)n3)oc2c1 [B18-94]	–	–	–	–
–	Oc1ccc(/C=N/Nc2nc3ccccc3[nH]2)cc1O [B-44]	0.0894%	66.2%	–	–
